Data on 20 molecules can be found in patent US20250302816A1, “DISRUPTION OF EPITHELIAL BARRIERS FOR MOLECULAR DELIVERY ENHANCEMENT OR EXTRACTION OF EXTRACELLULAR FLUIDS” (The University of Nottingham, priority 2022, published 2025).

For data set [1], the system named is human primary lung epithelium. Kind of data set: Human primary lung epithelium, air-liquid interface culture: TEER, FD4 and mAb delivery. The class given is cell-based.
Another data set relates to Calu-3 cells. Kind of data set: MTS assay of metabolic activity / cell viability. The class given is cell-based, human. As to conditions: 5 nM to 200 μM, 6 hours.
A further data set relates to Calu-3 cell layers. Kind of data set: FD4 permeability and TEER of polarised Calu-3 cell layers. The class given is cell-based, human.
The subject of another data set is Calu-3. Kind of data set: Further in vitro Transwell studies: enhancing translocation of 4 kDa FITC-dextran. In kind it is cell-based, human. Here is the method:
Exemplary molecules (a)-(1) investigated in coarse dose-response by FD4 delivery in Transwell culture (Calu-3). Each molecule was screened at 5 nM, 1 μM, 200 μM levels.
Each compound was screened at 200 μM level.
Each molecule was screened at 5 nM, 1 μM, 200 μM levels.

The test system of the next data set is ZO-1. Kind of data set: ZO-1 immunostaining and confocal microscopy of Calu-3 cell layers. The class given is cell-based, human. As to conditions: 200 μM, one hour, vs vehicle 0.15% DMSO. Here is the method:
To visualise the effect of 3OC12-HSL and C7 PQS on tight junction integrity in Calu-3 cell layers, ZO-1, immunostaining and confocal microscopy was performed on cell layers treated by 200 μM 3OC12-HSL and C7 PQS and control (0.15% DMSO in HBSS) for one hour. Confluent cell monolayers were washed with PBS and fixed in 4% paraformaldehyde in PBS for approximately 10 min at room temperature. Cells were then washed 3 times with PBS and permeabilised by incubating with Triton X-100 (0.1% v/v in PBS) for 10 min. Cells were then washed with PBS, followed by the application of 1% BSA/PBS for approximately 1 hour. Thereafter, BSA/PBS solution was aspirated and replaced with mouse, anti-human ZO-1 (primary) antibody, diluted in 1% BSA/PBS to a final concentration of 100 μg/ml. Cell samples were incubated with the primary antibody for 2 hours. The primary antibody solution was then removed and cells washed with PBS (5 times). FITC-labelled goat, anti-mouse (secondary) antibody, diluted according to manufacturer's instructions in 1% BSA/PBS was then applied to the cells for 1 hour. The secondary antibody solution was then aspirated and cells washed with PBS three times. […]

Another data set has as its system MMP. Kind of data set: Fluorogenic MMP activity assay. The class given is cell-based, human. As for the experimental part: FIG. 5: High-throughput MMP assay (MMP Activity Assay Kit (Fluorometric-Red), Abcam #ab112147) showing the normalised accumulation slope of FRET-based signal (Ex540: Em590 nm) read at 5 minute intervals for one hour in adherent Calu-3 cells cultured in glass-bottomed 96-well plates using a SpectraMax i3x/Biomek FXPP high-throughput platform. Each experiment was conducted in triplicate (error bars). Signal accumulation over time in each well was linearly fitted and the gradient of each fit was scaled against the gradient of the relevant positive control wells, to which active MMP was added directly (mixed isoforms, […]), to obtain the normalised accumulation slope.
To investigate the involvement of MMP in the disruption of tight junctions observed in the presence of 200 μM 3OC12-HSL and C7 PQS, a fluorogenic MMP activity assay was performed, using the Amplite™ Universal Fluorimetric MMP Activity Assay Kit. This kit is designed to check the general activity of a MMP enzyme.
Following treatment with 3OC12-HSL and C7 PQS respectively, the conditioned media were collected every hour from apical chamber and MMP activity was determined by using Amplite™ Universal Fluorimetric MMP Activity Assay Kit Green Fluorescence according to the manufacturer's instructions.
A fluorogenic MMP activity assay was carried out in the same manner on further agents.

A further data set deals with ARPE-19 cell layers. Kind of data set: Transwell drug transport across ARPE-19 cell layers with or without 3OC12-HSL. The class given is cell-based, human. As to conditions: doxorubicin 250 μg/ml apical, after 5 hours. As for the experimental part: FIG. 1: Macromolecular therapeutics transported across ARPE-19 cell layers in the absence and presence of 3OC12-HSL transported into the basolateral chamber over a period of five hours. Permeability experiments were initiated by applying 0.5 ml of the test solutions (250 μg/ml Aflibercept/Bevacizumab/or Doxorubicin diluted in HBSS/HEPES) to the apical side of the cells (donor compartment of the Transwell) with or without 3OC12-HSL (200 μM). Drug permeability was determined by sampling the basolateral solution at regular time intervals. Data points are expressed as means±SEM, derived from three replicates in triplicate. p values of <0.05 were considered statistically significant. *, ** and *** denote p<0.05, p<0.01 and p<0.001, respectively.
Calu-3 cells obtained from American Type Culture Collection, USA were cultured using Dulbecco's Modified Eagle Medium (DMEM) supplemented with penicillin (100 U/mL), streptomycin (0.1 mg/mL), amphotericin (0.25 μg/mL), non-essential amino acids (NEM, 1%) and Fetal Bovine Serum (FBS, 10% v/v, Sigma-Aldrich, UK). The human-derived RPE cell line ARPE-19 was obtained from American Type Culture Collection. Cells were grown in Dulbecco's Modified Eagle Medium: F12 (1:1; Gibco, Invitrogen, Carlsbad, CA), including 10% inactivated fetal bovine serum, 100 units/mL penicillin, 100 μg/mL streptomycin, and 2 mM L-glutamine (Sigma-Aldrich). Caco-2 cells were grown in complete culture medium (DMEM supplemented with 17% FBS and 1% antibiotic-antimycotic solution). All cells were kept in a water-jacketed incubator (model 3546, Forma Scientific, Inc., Marietta, OH, USA) maintained at 37° C. and an atmosphere of humidified air with 5% CO2. Medium was replaced every other day until cells reached the 80-90% confluence desired for re-plating or culturing mature, polarised barrier models.
When confluent, cells were seeded on Transwell® filters (12 mm diameter, 0.4 μm pore size; Corning Life Sciences, Holland) at 10^5 cells/cm^2. […]
Three polarised epithelial in-vitro tissue models, including lung epithelium (Calu-3), retinal pigment epithelium (ARPE-19) and intestinal epithelial (Caco-2) were used to study the efficiency of 200 μM 3OC12-HSL as a paracellular permeability enhancer for three different drugs: bevacizumab, aflibercept and doxorubicin (applied concentrations 250 μg/mL). The amount of drugs transported was determined via the conversion of fluorescence intensity to amount (μg or ng), using calibration curves constructed via serial standard dilutions. […]
Permeability experiments were initiated by applying 0.5 mL of the test solutions to the apical side of the cells (donor compartment of the Transwell®). […] Drug permeability was determined by sampling the basolateral solution at regular time intervals. […]

The next data set has as its system ex-vivo rat eyes. As for the experimental part:
In order to investigate the efficacy of 3OC12-HSL as drug delivery enhancer in intact tissue, bevacizumab (250 μg/mL: […]) and aflibercept (40 mg/mL: 348 μM) were applied with and without 3OC12-HSL to ex-vivo rat eyes, and the distribution of drugs was visualised within sagittal ocular cryosections by confocal microscopy. A further set of experiments tested efficacy of 3OC12-HSL via ex vivo porcine skin.
Six hooded rats with pigmented eyes, weighing 280-300 g and aged 7-8 weeks were provided by Bio-Support Unit at the Queen's Medical Centre, Nottingham. Experiments were designed to be performed ex-vivo, immediately post-sacrifice, during experiments supporting other studies. Tested therapies (bevacizumab (250 μg/mL), aflibercept (250 μg/mL) with/without 3OC12-HSL (200 μM) were immediately applied post-sacrifice in (50 μL) to the corneal surface of each animal for a period of 1 hour, before being washed off using ice-cold PBS. The eyeballs were enucleated, immersed in OCT, and flash-frozen in isopentane cooled by liquid N2 before being stored at −80° C. for further processing.
OCT-embedded eyes were cut into 15 μm tissue sections using a cryostat (Leica 3050) and mounted on gelatin-coated slides, at cutting temperatures between −15 and −23° C. […]

Description for Calu-3 cells: To assess 3OC12-HSL and C7 PQS molecules cytotoxicity on cell viability of Calu-3 cell layers and to monitor short-term cytotoxicity during experiments, Calu-3 cells were treated with 3OC12-HSL and C7 PQS, at concentrations 5 nM, 1 μM, 50 μM, 100 μM and 200 μM, for 6 hours. At the end of the treatment, cell viability (through measuring metabolic activity) of cultures was determined by chromogenic MTS assay.
The viability of Calu-3 cells was determined by a chromogenic MTS method based on the measuring of mitochondrial respiration, assessed by the reduction of 3-(4,5-dimethylthiazol-2-yl)-5-(3-carboxymethoxyphenyl)-2-(4-sulfophenyl)-2H-tetrazolium to formazan. Calu-3 cells were cultured in a 96-well plate (CellTiter 96® Aqueous, Promega) at a density of 10^4 cells per well and incubated at 37° C., 5% CO2 for 24 hours. After 24 hours, the medium was replaced with 100 μl of test compounds dissolved in HBSS and then cells were incubated for 6 hours. HBSS and Triton X-100 (0.1% v/v in HBSS) were used as the negative and positive controls respectively. Bathing solutions were then aspirated and cells washed with PBS. Then culture medium (100 μl at 37° C.) plus MTS reagent (20 μl) were added into each well and cells were incubated for 2 hours. Absorbance at 492 was measured using a Dynex absorbance microplate reader (Dynex Technologies, USA) and converted into a percentage metabolic rate.

Take `CCCCCCCCCC(=O)CC(=O)Nc1nccs1` [OdDAT]: in data set [1], the “TEER (electrical resistance) upon agent exposure” value is reported as “temporarily reduced” and the “mAb (Mepolizumab) delivery upon agent exposure” value was “increased”.

For `CCCCCCCc1[nH]c2ccccc2c(=O)c1O` [C7 PQS, 2-n-heptyl-3-hydroxy-4 (1H)-quinolone], the “cytotoxic effect on cell viability within epithelial layers” value with Calu-3 cells is listed as “do not have an adverse cytotoxic effect”. The “paracellular passage / flux of FD4 from apical to basolateral chamber” value in the data set with Calu-3 cell layers (200 μM (3OC12-HSL: 200 μM or 1 μM)) is “increased the flux of FD4”. Also, in the data set with Calu-3 cell layers (200 μM, recovery, SEM+/−20), the “TEER after 7 hours” value is 510 Ωcm^−2. Further, the “time after which TEER started increasing / cell layer integrity began to recover” value in the data set with Calu-3 cell layers (during exposure) was determined as 5 h. Further, the “Effective in enhancing translocation” value in the data set on Calu-3 is reported as “Yes”. Further, the “ZO-1 distribution at tight junctions” value in the data set on ZO-1 was “considerable dislocation of ZO-1 proteins”. In addition, in the data set on MMP (200 μM, p<0.01, no fluorescence in control samples), the “MMP activation in apical samples taken at one-hour intervals” value is “significant MMP activation”. The “period over which MMP activation increased before starting to reduce” value in the data set with MMP (samples taken hourly from apical chamber) is 4 h.

Turning to `CCCCCCC/C=C\C(=O)O` [Cis-2-decenoic acid, cis-2-decenoic acid], the “Effective in enhancing translocation” value with Calu-3 is “Yes”.

Turning to `CCCCCCCc1cc(O)c2ccccc2[n+]1[O-]` [C7 HNQ N-oxide], the “Effective in enhancing translocation” value in the data set on Calu-3 was “Yes”. As to `CCCCC(=O)CC(=O)NC1CCOC1=O` (stereo not drawn) [OC7-HSL], the “Effective in enhancing translocation” value in the data set on Calu-3 was “Yes”. On to `CCCCCC/C=C/Cc1[nH]c2ccccc2c(=O)c1C` [3-Me C9: 2. Quinolone], for which, in the data set on Calu-3, the “Effective in enhancing translocation” value is “No”. As for `CCCCCCCCCc1[nH]c2ccccc2c(=O)c1CN(C)C` [3-C1NMe2 C9 PQS], the “Effective in enhancing translocation” value in the data set with Calu-3 is on record as “No”. On the same count and under the same terms, the result for `Cc1[nH]c2ccccc2c(=O)c1O` [C1 PQS (Me PQS)] reads “Yes”. As to `COc1cccc2c1C(=O)c1c(O)c3c(c(O)c1C2=O)C[C@@](O)(C(=O)CO)C[C@@H]3O[C@H]1C[C@H](N)[C@H](O)[C@H](C)O1` [Doxorubicin, reference compound], the figures for the “amount of drug transported into the basolateral chamber” value in the data set on ARPE-19 cell layers (with 3OC12-HSL (200 μM)) and in the data set on ARPE-19 cell layers (without 3OC12-HSL) were 62.33 µg and 9.85 µg, respectively. As to `CCCCCCCc1[nH]c2cc(F)ccc2c(=O)c1O` [7F-C7 PQS], in data set [1], the “TEER (electrical resistance) upon agent exposure” value is “temporarily reduced” and the “mAb (Mepolizumab) delivery upon agent exposure” value was “increased”.

With `CCCCCCCCCc1[nH]c2ccccc2c(=O)c1O` [C9 PQS], the “Effective in enhancing translocation” value with Calu-3 is “Yes”. Same read-out and setting: the result for `CC(C)CCCCCCc1[nH]c2ccccc2c(=O)c1O` [7Me-C8-PQS] reads “Yes”; that for `CCCCCCCCCC1=Nc2ccccc2C(=O)C1` [HNQ], “Yes”.

Turning to `CCCC(=O)NC1CCOC1=O` (stereo not drawn) [C4 HSL (BHL), N-butyl-homoserine-lactone], the “MMP activation (further MMP screening)” value in the data set on MMP (assay carried out in the same manner on further agents) is recorded as “cause MMP activation”. With “Aflibercept: recombinant fusion protein of VEGF-binding portions of human VEGF receptors 1 and 2 and Fc of human IgG1”, the “fluorescence in eye sections (CLSM)” value in the data set with ex-vivo rat eyes is “No fluorescence was detected”. On to `CCCCCC/C=C\CCCC(=O)N[C@H]1CCOC1=O` [5-cis-C12 HSL], for which the “Effective in enhancing translocation” value in the data set on Calu-3 is “No”. The same measure, in the same setting: the result for `CCCCCCCc1cc(O)c2ccccc2n1` [HHQ] reads “Yes”. Still for that read-out and setting: under `CCCCCCCCCCCc1[nH]c2ccccc2c(=O)c1O` [C11 PQS] stands “Yes”; under `CCCCCCCCCCCc1cc(=O)c2ccccc2[nH]1` [UHQ], “Yes”. Still for that read-out and setting: the result for `CCCCCNC(=O)c1[nH]c2ccccc2c(=O)c1O` [PQS-C5-Amide] reads “No”.
